Experimental data published in PMC6222545, “Evaluating Marine Cyanobacteria as a Source for CNS Receptor Ligands” (Molecules : A Journal of Synthetic Chemistry and Natural …, 2018).

Legend:
[1] = tested on: 5-HTRs or any other receptor; test: PDSP primary radioligand binding screen, CNS receptor panel; set-up: dose or concentration left out as unconfirmed; settings: data not shown
Description: (§1) Prior to screening, cyanobacterial samples are extracted exhaustively in a solution of dichloromethane and methanol, then the extract is subjected to column chromatography using the solvent step gradient illustrated in Figure 1 to create nine fractions. The polarities of the solvents in this step gradient increase linearly with each fraction. A sample of each fraction and the crude is prepared and sent to the NIMH Psychoactive Drug Screening Program (PDSP) for screening against a panel of ~50 receptor including 5-HTRs, DARs, MATs, σRs, and other CNS receptors.
(§2) From the extracts of 37 cyanobacterial field collections from Panama and Curacao, 19 crude extracts and 301 fractions were sent to PDSP for CNS screening. Due to sample size requirements not all fractions created are sent for screening, resulting in a lower number of total fractions screened compared to the theoretical amount of 370 fractions and crudes. […] Data analysis of results from these screens is presented herein.
IC50 determinations/receptor binding profiles were generously provided by the National Institute of Mental Health’s Psychoactive Drug Screening Program, Contract # HHSN-271-2018-00023-C (NIMH PDSP). The NIMH PDSP is Directed by Bryan L. Roth MD, PhD at the University of North Carolina at Chapel Hill and Project Officer Jamie Driscoll at NIMH, Bethesda MD, USA. Detailed information regarding the assay protocol can be found at http://pdspdb.unc.edu/pdspWeb/.

5-HT2C = target: T1, 5-HT2C (Homo sapiens, UniProt P28335); test: PDSP radioligand competitive binding, 5-HT2C
T1 sequence (P28335 33-458): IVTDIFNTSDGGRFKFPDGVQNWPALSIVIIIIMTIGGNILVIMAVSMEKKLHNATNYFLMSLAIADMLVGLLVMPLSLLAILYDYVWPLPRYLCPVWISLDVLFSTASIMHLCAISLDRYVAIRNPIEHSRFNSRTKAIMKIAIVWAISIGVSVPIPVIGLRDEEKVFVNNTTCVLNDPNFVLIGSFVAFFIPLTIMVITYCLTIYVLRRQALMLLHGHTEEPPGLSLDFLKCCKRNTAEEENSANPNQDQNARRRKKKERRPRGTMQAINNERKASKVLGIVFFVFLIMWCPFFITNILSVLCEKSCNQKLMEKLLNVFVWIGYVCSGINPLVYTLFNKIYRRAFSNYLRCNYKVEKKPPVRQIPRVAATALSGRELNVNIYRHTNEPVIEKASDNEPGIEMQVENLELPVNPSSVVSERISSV
Description: as §1, §2
(§3) A cyanobacterial biomass collected at Isla Mina, Panama was extracted exhaustively with CH2Cl2-MeOH (2:1) to afford 3.3 g of crude extract given the identification code DUQ0008. This extract was fractionated to yield nine fractions (A–I). The crude extract, along with the nine fractions were submitted to PDSP for screening. […]

σ2R = target: T2, σ2R (Rattus norvegicus, UniProt Q5U3Y7); test: PDSP radioligand competitive binding, σ2R
T2 sequence (Q5U3Y7 1-176): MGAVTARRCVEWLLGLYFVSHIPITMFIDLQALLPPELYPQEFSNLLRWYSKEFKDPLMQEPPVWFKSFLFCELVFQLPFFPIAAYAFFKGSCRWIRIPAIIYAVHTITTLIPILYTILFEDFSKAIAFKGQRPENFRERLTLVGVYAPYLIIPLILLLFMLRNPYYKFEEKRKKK
Description: as §1, §2, §3

[2] = pure compound resubmitted to PDSP

Row | SMILES | inhibition of radioligand binding at 5-HTRs or any other receptor [1] | inhibition of binding at 5-HT2C (5-HT2C; primary binding, pure compound) | Ki (5-HT2C; [2]) | affinity for the σ2R (σ2R; in words) | Ki (σ2R; [2])
1 | CCCCCCCCC/C(C)=C/C(C/C=C/CCC(=O)OCC)OC (stereo not shown) [compound 2] | < 50% | – | – | – | –
2 | C=C(CCCCCCCCCCCCC)CCCC(=O)O/C=C/COC(C)=O [compound 4, propenediester] | < 50% | – | – | – | –
3 | CCCCCCC[C@H]1C[C@@H]1CCC(=O)OCC [compound 3] | < 50% | – | – | – | –
4 | C#CCCC[C@H]1OC(=O)[C@H](C(C)C)N(C)C(=O)[C@@H]2CCCN2C(=O)[C@H]([C@@H](C)CC)OC(=O)[C@H](C(C)C)N(C)C(=O)[C@H](C(C)C)NC(=O)[C@H]1C [compound 1, veraguamide C] | – | greater than 50% | > 10000 nM | moderate and selective affinity | 316 nM
